Experimental data as given in patent US20230106506A1, “NOVEL PqsR INVERSE AGONISTS” (Helmholtz-Zentrum Fur Infektionsforschung GmbH, priority 2020, published 2023).
Like-named read-outs stand apart in the source and are kept apart here.

Tests used:
[1] = tested on: production of signal molecules HHQ and PQS; details: cited from earlier work
[2] = tested on: P. aeruginosa pyocyanin production; details: in cellulo, literature value; read-out: inhibition of virulence factor pyocyanin production: IC50; cited from earlier work
[3] = tested on: virulence factor elastase; details: cited from earlier work
PqsR = target: T1, PqsR (Pseudomonas aeruginosa, UniProt Q9I4X0); test: PqsR reporter gene assay in E. coli (β-galactosidase); type: cell-based
T1 construct: transfected with pEAL08-2 plasmid encoding pqsR under control of promoter tac; expressed in transfected cells; host or cells: Escherichia coli DH5alpha carrying pEAL08-2
Experimental: Inhibition of pqsR-dependent gene expression of test compounds was determined in an E. coli based β-galactosidase reporter gene assay. Escherichia coli DH5α was transfected with pEAL08-2 plasmid encoding pqsR under control of promoter tac and β-galactosidase reporter gene lacZ under control of promoter pqsA. Antagonistic effects of compounds were evaluated in the presence of/in competition to 50 nM PQS. A positive control was used to ensure the reliability of individual assays. First, PQS was diluted in methanol and added to the wells of a glass coated 96-deep-well plate, and the solvent was evaporated. Then, compounds were added in 5 μL DMSO to final concentrations of 0.001-10 μM. Overnight cultures of E. coli DH5a×pEAL08-2 were diluted 1:100 in LB medium with ampicillin (50 μg/ml) and incubated at 37° C. with shaking until it reached an OD600 of 0.2. Finally, 995 μL of culture was added to each well and the β-galactosidase activity was determined by ortho-nitrophenyl-β-galactoside conversion in permeabilized cells after a 2.5 h incubation period (37° C., 180 rpm). OD600, OD420, and OD550 were measured using POLARstar Omega (BMG Labtech, Ortenberg, Germany), and the activity was expressed as ratio of the slope of β-galactosidase activity between basal control (no PQS) and solvent control, IC50 values of antagonists were determined by variation of the concentration of the test compounds.

[4] = tested on: P. aeruginosa pyocyanin production; test: Pyocyanin assay; type: cell-based, P. aeruginosa strain PA14; details: Pseudomonas aeruginosa, PA14, 16 h, read-out: IC50-value towards pyocyanin production
Procedure, shortened: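 PA14 washed overnight culture in PPGAS diluted to OD600 0.02, grown 16 h with compound (37 °C, 200 rpm, 75% RH). Pyocyanin extracted with chloroform, back-extracted into 0.2 M HCl. OD520 measured and normalised to OD600.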

[5] = Kinetic turbidimetric aqueous solubility; type: physicochemical; details: aqueous buffer, kinetic from dmso stock; PBS buffer, final DMSO 2%, absorbance 620 nm; read-out: Kinetic Turbidimetric Aqueous Solubility at room temperature for 5 min
Experimental: Kinetic Turbidimetric Aqueous Solubility at room temperature for 5 min. […] Data was analyzed by fitting a four parameter sigmoidal function to the measured and normalized absorbances and AUC calculation providing access to Log S (decadic logarithm of the solubility).

[6] = Metabolic stability in mouse liver microsomes (MLM); type: in vitro ADME; details: 1 μM compound, 0.5 mg/mL MLM, 1 mM NADPH, 37° C., read-out: half-life (t1/2) towards MLM
Procedure, shortened: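 Phase I stability: 1 μM compound incubated at 37° C with 0.5 mg/mL mouse liver microsomes and 1 mM NADPH, sampled at 0-30 min and quenched in acetonitrile. Remaining parent measured by HPLC-MS/MS to derive half-life.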

T1 sequence (Q9I4X0 whole entry): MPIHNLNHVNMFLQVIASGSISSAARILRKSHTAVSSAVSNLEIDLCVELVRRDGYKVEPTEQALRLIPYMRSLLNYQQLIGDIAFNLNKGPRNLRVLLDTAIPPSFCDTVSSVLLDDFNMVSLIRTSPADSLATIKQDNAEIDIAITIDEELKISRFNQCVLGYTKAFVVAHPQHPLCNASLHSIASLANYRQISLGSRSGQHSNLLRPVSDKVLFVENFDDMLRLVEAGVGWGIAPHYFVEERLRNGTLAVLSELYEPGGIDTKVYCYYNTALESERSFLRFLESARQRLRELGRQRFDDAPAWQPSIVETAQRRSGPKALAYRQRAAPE

Question: What does the source list for `CCCCCCCc1[nH]c2ccc([N+](=O)[O-])cc2c(=O)c1C(N)=O` [2-heptyl-6-nitro-4-oxo-1,4-dihydroquinoline-3-carboxamide]?
Answer: reduction of HHQ production ([1]; at 15 μM): 54%; reduction of PQS production ([1]; at 15 μM): 37%; IC50 [2]: 2000 nM

Question: With `COC(=O)c1ccccc1N` [methyl anthranilate] as the molecule, how does the “inhibition of PQS formation, active concentration” value [1] read?
Answer: millimolar concentrations

Question: What about the “inhibition of production of the virulence factor elastase, active concentration” value [3] of the same molecule?
Answer: millimolar concentrations

Question: Which IC50 ([1]; QS inhibitor targeting the enzyme PqsA) does the source give for `Nc1cccc(F)c1C(=O)O` [Compound 6FABA] here?
Answer: ~100000 nM

Question: For `CC(C)Oc1ccc(-c2ncc(CNc3cc(-c4cn[nH]c4)nc(C(F)(F)F)c3)s2)cc1` [Compound 11, N-((2-(4-Isopropoxyphenyl)thiazol-5-yl)methyl)-2-(1H-pyrazol-4-yl)-6-(trifluoromethyl)pyridin-4-amine], which IC50 (PqsR) is on record?
Answer: ≤ 50 nM

Question: What about the IC50 [4] of the same molecule?
Answer: ≤ 100 nM

Question: What about the solubility at 5 min [5] of the same molecule?
Answer: > 10 µM

Question: And the half-life at 1 µM [6]?
Answer: 30 to 60 min
